Results as given in patent US20240366637A1, “Compounds inhibiting the synergistic carsinogenic effect of heavy metals in the presence of other carcinogens for use in the treatment of cancer” (priority 2021, published 2024).

Experiments:
[1] = system: Salmonella typhimurium TA1535; conditions: cadmium chloride 0.5 mM as pro-mutagen, N-Methyl-N-nitrosourea 180 μM as mutagen, candidate in various concentrations; mutant revertants on solid media
Procedure: The operating hypothesis was tested with an AMES test (as described e.g. by Mandel and Ryser, 1984) based platform using Salmonella typhimurium TA1535 (Standard Ames Tester Strain), cadmium chloride as pro-mutagen (0.5 mM final concentration during treatment), N-Methyl-N-nitrosourea as mutagen (180 μM final concentration during treatment) and EDTA, phytic acid (IP6) and Unithiol (i.e. DMPS) as candidate cadmium-promoted mutagenicity antidotes (in various concentrations, see FIGS. 1 and 2).
The experiment included the following steps: • 1. Healthy growth of bacterial cells • 2. Absorption of cadmium chloride (as a non-genotoxic metabolic poison) under conditions of reduced metabolism (bacteria chilled on ice) • 3. Addition of candidate antidotes and metabolic activation (fresh growth medium, 37° C.) • 4. Addition of N-methyl-N-nitrosourea under metabolically active conditions to fix mutations (fresh growth medium, 37° C.) • 5. Screening for mutant revertants on solid media (standard, second generation Petri dish-based AMES test)

Salmonella typhimurium = conditions: synergistic with two nitrosoamines; cited from earlier work

| SMILES | inhibition of mutagenicity-promoting synergy between cadmium and N-methyl-N-nitrosourea [1] | increase of the mutagenicity of two common nitrosoamines, greater than expected from simple additivity (Salmonella typhimurium) |
| --- | --- | --- |
| O=P(O)(O)O[C@H]1[C@H](OP(=O)(O)O)[C@@H](OP(=O)(O)O)[C@H](OP(=O)(O)O)[C@@H](OP(=O)(O)O)[C@H]1OP(=O)(O)O [phytic acid] | dose-dependent inhibition |  |
| [Cl][Cd][Cl] [cadmium chloride] |  | up to 30 fold |
| O=C(O)CN(CCN(CC(=O)O)CC(=O)O)CC(=O)O [EDTA] | did not inhibit |  |
| O=S(=O)(O)CC(S)CS (stereo not shown) [Unithiol, 2,3-Dimercapto-1-propanesulfonic acid] | dose-dependent inhibition |  |
